Read-outs that look alike come from different tables or passages of the source. [NapdU] = 5-(N-(1-naphthylmethyl)carboxamide)-2'-deoxyuridine (Nap-dU)
Experiments:
[1] = Serum half-life in human serum (urea-PAGE band intensity); format: in vitro ADME; settings: 96% human serum, 37° C.; ligands with biotin conjugated to the 5′-end
Procedure: The stabilized nucleic acid ligand was added to the 96% human serum and then reacted at 37° C. for 0, 3, 6, 9, 12, 15, and 18 hours, thereby inducing the degradation of the nucleic acid ligand. After each of the reaction times, the nuclease was inactivated by heating at 85° C., and electrophoresis was performed on a 10% urea-polyacrylamide gel. A control without the addition of human serum was included as a loading control, and the band intensities of the control and the test groups were measured. The intensity trend line over time was determined using the measurement values, and the intensity value was inserted into the trend equation to obtain the half-life.

K-RAS G12D protein = K-RAS G12D protein (Homo sapiens, UniProt P01116, G12D); test: ELISA binding affinity (Kd) for 2nd target; settings: read-out: Biding affinity for 2nd target Kd, ligands with biotin conjugated to the 5′-end
Procedure: The binding affinity of the nucleic acid ligands were measured using enzyme linked immunosorbent assay (ELISA).
The test method was composed of the following steps. • 1) A target protein was coated on a microplate at a low temperature for 16 hours. • 2) The surface of the microplate was blocked by reaction at room temperature for 1 hour using Blocking Buffer (Pierce™ Protein-Free (PBS) Blocking Buffer, Thermo Scientific, USA). • 3) The microplate was treated with a nucleic acid ligand, followed by reaction at 37° C. for 1 hour. • 4) For enzyme conjugation, the microplate was treated with a streptavidin-horseradish peroxidase (HRP) conjugate (Thermo Scientific, USA), followed by reaction at room temperature for 1 hour. • 5) The microplate was treated with TMB substrate solution (Thermo Scientific, USA), followed by reaction at room temperature for 30 minutes. • 6) The microplate was treated with a reaction termination solution (2 M sulfuric acid). • 7) The absorbance was measured at 450 nm using GloMax plate meter (Promega, USA).
The target protein and the nucleic acid ligand were each used at 4-fold dilution starting from 500 nM.

[2] = target: human serum albumin (HSA) (Homo sapiens, UniProt P02768); test: ELISA binding affinity (Kd) for 1st target
Sequence of human serum albumin (HSA) (P02768 25-609): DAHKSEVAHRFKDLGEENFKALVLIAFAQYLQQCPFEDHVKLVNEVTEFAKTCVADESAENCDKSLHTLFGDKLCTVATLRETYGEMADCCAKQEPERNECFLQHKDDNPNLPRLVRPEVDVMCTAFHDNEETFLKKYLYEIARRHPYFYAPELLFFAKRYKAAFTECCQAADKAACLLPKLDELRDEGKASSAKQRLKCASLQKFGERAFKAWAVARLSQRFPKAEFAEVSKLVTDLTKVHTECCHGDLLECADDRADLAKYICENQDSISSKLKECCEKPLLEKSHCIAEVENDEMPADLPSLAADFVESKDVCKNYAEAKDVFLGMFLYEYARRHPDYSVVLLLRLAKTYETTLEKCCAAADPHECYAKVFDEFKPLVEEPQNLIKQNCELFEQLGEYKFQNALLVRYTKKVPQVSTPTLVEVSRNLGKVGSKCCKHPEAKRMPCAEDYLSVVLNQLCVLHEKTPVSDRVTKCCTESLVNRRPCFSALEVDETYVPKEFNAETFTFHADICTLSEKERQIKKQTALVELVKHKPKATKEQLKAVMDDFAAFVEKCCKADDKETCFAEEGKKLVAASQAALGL

Substance | Serum half-life t½ [1] [h] | Kd (K-RAS G12D protein) [nM] | Kd ([2]; HSA, ELISA, ligands with biotin conjugated to the 5′-end, read-out: Biding affinity for 1st target Kd) [nM] | Kd [2] [nM]
AD005: truncated nucleic acid ligand GAC6AGCA6AAG6CCGGA6GGCAGC666A6GCCGACCA6, 6 = Nap-dU (DNA GACNAGCANAAGNCCGGANGGCAGCNNNANGCCGACCAN; Nap-dU modified bases; modified_base 4 OTHER; 5-(N-(1-naphthylmethyl)carboxamide)-2-deoxyuridine; modified_base 9 OTHER; 5-(N-(1-naphthylmethyl)carboxamide)-2'-deoxyuridine(Nap-dU); modified_base 13 OTHER; modified_base 19 OTHER; modified_base 26..28 OTHER; 5-(N-(1-naphthylmethyl)carboxamide)-2'-deox) | 30.1 | 22.9 | 122 | 
AD007: truncated nucleic acid ligand GCA6AAG6CCGGA6GGCAGC666A6GCCGACC, 6 = Nap-dU (DNA GCAUAAGUCCGGAUGGCAGCUUUAUGCCGACC; aptamer; DNA, [NapdU] at 4, 8, 14, 21, 22, 23, 25, backbone and methylation of C not given here) |  | 152 |  | 536
AD008: truncated nucleic acid ligand GCA6AAG6CCGGA6GGCAGC666A6GC, 6 = Nap-dU (DNA GCAUAAGUCCGGAUGGCAGCUUUAUGC; aptamer; DNA, [NapdU] at 4, 8, 14, 21, 22, 23, 25, backbone and methylation of C not given here) |  | 287 |  | 66.9
AD006: truncated nucleic acid ligand GAC6AGCA6AAG6CCGGA6GGCAGC666A6GCCG, 6 = Nap-dU (DNA GACUAGCAUAAGUCCGGAUGGCAGCUUUAUGCCG; aptamer; DNA, [NapdU] at 4, 9, 13, 19, 26, 27, 28, 30, backbone and methylation of C not given here) |  | 77.6 |  | 939
AD004: truncated nucleic acid ligand GCCTGGAC6AGCA6AAG6CCGGA6GGCAGC666A6GCCGACCA6CAGCC, 6 = Nap-dU (DNA GCCTGGACUAGCAUAAGUCCGGAUGGCAGCUUUAUGCCGACCAUCAGCC; aptamer; DNA, [NapdU] at 9, 14, 18, 24, 31, 32, 33, 35, 44, backbone and methylation of C not given here) |  | 16.6 |  | 190

Reference: patent US20240336926A1, “PHARMACEUTICAL COMPOSITION FOR TREATING TRIPLE NEGATIVE BREAST CANCER, CONTAINING NON-NATURAL NUCLEIC ACID LIGAND AS ACTIVE INGREDIENT” (INTEROLIGO CORPORATION, priority 2021, published 2024)
